# Measured values reported in patent publication US20160075682A1, “INHIBITORS OF NICOTINAMIDE PHOSPHORIBOSYLTRANSFERASE, COMPOSITIONS, PRODUCTS AND USES THEREOF” (UNIVERSITÀ DEGLI STUDI DEL PIEMONTE ORIENTALE "AMEDEO …, priority 2013, published 2016).
# pIC50: −log10 of the molar value.
# Test system: SH-SY5Y, HeLa
# Assay: MTT cell proliferation assay and trypan blue count (cell viability)
# Format: cell-based
# Conditions: cells treated for 48 and 72 hours; read-out: IC50 values (inhibition of cellular proliferation, MTT assay and trypan blue assay)
# Description: Cell based assays were used to evaluate the possible cytotoxic effects of some compounds. To measure cytotoxic effects two different methods were used, a MTT cell proliferation assay and trypan blue count.
# The Trypan blue assay is used to determine the number of viable cells present in a cell suspension. […] Briefly, 8×10^5 cells (SH-SY5Y, HeLa; obtained from ATCC, LGC standards, Sesto San Giovanni) were seeded in 24-well plates and treated for 48 and 72 hours. After the treatments, cells were stained with trypan blue and counted.
# To analyze cell viability was used the colorimetric 3-(4,5-dimethylthiazol-2-yl)-2,5-diphenyltetrazolium bromide (MTT) method. The assay is based on the cleavage of the yellow tetrazolium salt MTT to purple formazan crystals by metabolic active cells. Since reduction of MTT can only occur in metabolically active cells, the level of activity is a measure of the viability of cells and conversely the cytotoxic effects of various treatments. Briefly, 8×10^5 cells (SH-SY5Y, code number CRL-2266; and HeLa, code number CCL-2) were seeded in 24-well plates and treated for 48 and 72 hours. Compounds were dissolved in DMSO and were added to the cells to give a final DMSO concentration no greater than 0.5%. Cells were washed once in Locke buffer and 300 μl of MTT (250 μg/ml in Locke buffer) were added before returning the cells to the incubator for 1 h to allow the formation of the purple formazan crystals. After 1 h, 600 μl of isopropanol/0.1 M HCl were added to each well, and the absorbance was read at 570 nm in a plate reader (Victor3V, PerkinElmer Life Sciences). For some compounds a dose response curve and IC50 for the effects on cell viability and proliferation were calculated. Cell lines used were originally purchased from ATCC (LGC standards. Sesto San Giovanni).
# To evaluate the ability of each compound to inhibit cellular proliferation, cells were seeded in 24-well plates and treated for 48 and 72 hours. After the treatments the MTT assay and trypan blue assay were performed.
row,SMILES,pIC50
1,"O=C(O)c1ccc(-c2ccccc2C(=O)NCCCCCCCn2cc(-c3cccnc3)nn2)cc1 [2′-((7-(4-(pyridin-3-yl)-1H-1,2,3-triazol-1-yl)heptyl)carbamoyl)-[1,1′-biphenyl]-4-carboxylic acid]",> 6.52
2,"O=S(=O)(NCCCCCCCn1cc(-c2cccnc2)nn1)c1ccccc1Br [2-bromo-N-(7-(4-(pyridin-3-yl)-1H-1,2,3-triazol-1-yl)heptyl)benzene sulfonamide]",> 6.52
3,"O=C(O)c1cccc(-c2ccccc2OCCCCCCn2cc(-c3cccnc3)nn2)c1 [2′-((6-(4-(pyridin-3-yl)-1H-1,2,3-triazol-1-yl)hexyl)oxy)-[1,1′-biphenyl]-3-carboxylic acid]",> 6.52
4,"O=S(=O)(NCCCCCCn1cc(-c2cccnc2)nn1)c1ccccc1-c1ccccc1 [N-(6-(4-(pyridin-3-yl)-1H-1,2,3-triazol-1-yl)hexyl) biphenyl-2-sulfonamide]",> 6.52
5,"O=S(=O)(NCCc1ccc(Cn2cc(-c3cccnc3)nn2)cc1)c1ccccc1Br [2-bromo-N-(4-((4-(pyridin-3-yl)-1H-1,2,3-triazol-1-yl)methyl)phenethyl)benzenesulfonamide]",> 6.52
6,"Cc1ccccc1-c1ccccc1OCCCCCCn1cc(-c2cccnc2)nn1 [3-(1-(6-((2′-methyl-[1,1′-biphenyl]-2-yl)oxy)hexyl)-1H-1,2,3-triazol-4-yl)pyridine]",> 6.52
7,"c1ccc(-c2ccccc2CNCCc2ccc(Cn3cc(-c4cccnc4)nn3)cc2)cc1 [N-([1,1′-biphenyl]-ylmethyl)-2-(4-((4-(pyridin-3-yl)-1H-1,2,3-triazol-1-yl)methy)phenyl)ethanamine]",> 6.52
8,"O=S(=O)(NCCc1ccc(Cn2cc(-c3cccnc3)nn2)cc1)c1ccccc1-c1ccccc1 [N-(4-((4-(pyridin-3-yl)-1H-1,2,3-triazol-1-yl)methyl)phenethyl)-[1,1′-biphenyl]-sulfonamide]",> 6.52
9,"O=C(O)c1ccc(-c2ccccc2OCCCCCCn2cc(-c3cccnc3)nn2)cc1 [2′-((6-(4-(pyridin-3-yl)-1H-1,2,3-triazol-1-yl)hexyl)oxy)-[1,1′-biphenyl]-4-carboxylic acid]",> 6.52
10,"O=S(=O)(NCCCCCCCn1cc(-c2cccnc2)nn1)c1ccccc1-c1ccccc1 [N-(7-(4-(pyridin-3-yl)-1H-1,2,3-triazol-1-yl)heptyl) biphenyl-2-sulfonamide]",> 6.52
11,"c1ccc(-c2ccccc2CNCCCCCCCCn2cc(-c3cccnc3)nn2)cc1 [N-([1,1′-biphenyl]-2-ylmethyl)-8-(4-(pyridin-3-yl)-1H-1,2,3-triazol-1-yl)octan-1-amine]",> 6.52
12,"O=S(=O)(NCCCCCCn1cc(-c2cccnc2)nn1)c1ccccc1Br [2-bromo-N-(6-(4-(pyridin-3-yl)-1H-1,2,3-triazol-1-yl)hexyl)benzene sulfonamide]",> 6.52
13,"O=S(=O)(NCCCCCCCCn1cc(-c2cccnc2)nn1)c1ccccc1Br [2-bromo-N-(8-(4-(pyridin-3-yl)-1H-1,2,3-triazol-1-yl)octyl)benzene sulfonamide]",> 6.52

# Test system: not given
# Assay: not given
# Conditions: not given
row,SMILES,melting point [°C]
1,"O=C(NCCCCCCCn1cc(-c2cccnc2)nn1)c1ccccc1 [N-(7-(4-(pyridin-3-yl)-1H-1,2,3-triazol-1-yl)heptyl)benzamide]",123 to 124
2,"c1ccc(OCCCCCCn2cc(-c3cccnc3)nn2)cc1 [3-(1-(6-phenoxyhexyl)-1H-1,2,3-triazol-4-yl)pyridine]",74 to 75
3,"c1ccc(-c2cn(CCCCCCn3cc(-c4cccnc4)nn3)nn2)cc1 [3-(1-(6-(4-phenyl-1H-1,2,3-triazol-1-yl)hexyl)-1H-1,2,3-triazol-4-yl)pyridine]",172 to 173
4,"NC(=O)c1ccccc1-c1ccccc1C(=O)NCCCCCCCn1cc(-c2cccnc2)nn1 [N^2-(7-(4-(pyridin-3-yl)-1H-1,2,3-triazol-1-yl)heptyl)-[1,1′-biphenyl]-2,2′-dicarboxamide]",100 to 101
5,"c1ccc(OCCCCCCCn2cc(-c3cccnc3)nn2)cc1 [3-(1-(7-phenoxyheptyl)-1H-1,2,3-triazol-4-yl)pyridine]",90.5 to 91
